Results: patent US20180221435A1, “ITCH TREATMENT USING A COMBINATION OF NEUROKININ-1, GASTRIN RELEASING PEPTIDE, AND GLUTAMATE RECEPTOR ANTAGONISTS” (The Regents of the University of California, priority 2013, published 2018)
“Also recorded” adds a separate entry of the source.

What was measured:
[1] = test system: superficial dorsal horn neurons; assay: In vivo single-unit recording, id chloroquine-evoked firing, spinal superfusion of antagonists; design: species or system mice
Procedure: The single-unit recording from the lumbar spinal cord was conducted as previously detailed [Akiyama T et al., Journal of neurophysiology 102(4):2176-2183 (2009); Akiyama T et al., The Journal of neuroscience: the official journal of the Society for Neuroscience 29(20):6691-6699 (2009)]. Anesthesia was induced by sodium pentobarbital (60 mg/kg ip) and maintained by supplemental injections (10-20 mg/kg/hr). A gravity-driven perfusion system allowed artificial cerebrospinal fluid (Krebs: 117 mM NaCl, 3.6 mM KCl, 2.5 mM CaCl2, 1.2 mM MgCl2, 1.2 mM NaH2PO4, 25 mM NaHCO3 and 11 mM glucose which was equilibrated with 95% 02 and 5% CO2 at 37° C.) to be superfused continually over the exposed lumbosacral spinal cord [Akiyama T et al., PloS one 6(7):e22665 (2011)]. A tungsten microelectrode recorded single-unit activity in the lumbar spinal cord. A chemical search strategy [Akiyama T et al., Journal of neurophysiology 102(4):2176-2183 2009; Akiyama T et al., The Journal of neuroscience: the official journal of the Society for Neuroscience 29(20):6691-6699 (2009)] was used to identify and isolate chloroquine-responsive units. Our search strategy was intended to maximize the chance of isolating a chloroquine-responsive neuron; it was assumed that such neurons either gave rise to ascending projections, or served as interneurons in segmental scratch-reflex circuitry, and no attempt was presently made to distinguish between these possibilities.
Briefly, a small (˜0.25 μl) intradermal (id) microinjection of chloroquine (100 μg/μl) was made in the ventral hindpaw and a spontaneously active unit in the superficial lumbar dorsal horn (depth<300 um) was isolated. After the spontaneous activity had waned, chloroquine (1 μl, 100 μg/μl) was injected again at the same site through the same needle. […] Responses were usually recorded for at least 30 minutes, although in many cases unit firing declined over a shorter period.
Action potentials were recorded to a computer and counted using Chart software (AD Instruments, Colorado Springs Colo.) and Spike2 software (CED Instruments). Ongoing responses elicited by chloroquine, histamine, or AITC were averaged at 20-second intervals before, during and after the antagonist application, and compared by one way repeated-measures analysis of variance (ANOVA) followed by post-hoc Bonferroni test, with p<0.05 set as significant. The mean firing rate was calculated over a 20-second period 40 seconds after the antagonist application, and compared by one way ANOVA followed by post-hoc Bonferroni test, with p<0.05 set as significant. The criterion for decrease in ongoing firing was >70% decrease below the ongoing activity elicited by pruritogen over a 20-second period 40 seconds after the antagonist application. Mean peak responses elicited by noxious pinch were compared by one way repeated-measures ANOVA followed by post-hoc Bonferroni test, with p<0.05 set as significant. At the end of each experiment, an electrolytic lesion was made at the spinal cord recording site. The spinal cord was postfixed in 10% buffered formalin, cut in 50 μm frozen sections, and examined under the light microscope to identify lesions.

[2] = test system: histamine-evoked scratching; assay: Histamine-evoked scratching behavior after intrathecal antagonists; format: in vivo, mice; conditions: intrathecal CNQX 20 nmol, 5 min before id histamine 271 nmol
Description: The fur on the rostral back was shaved and mice were habituated to the Plexiglas recording arena one week prior to testing. For intrathecal injections, either vehicle (saline), the GRP receptor antagonist RC-3095 (0.3 nmol; Sigma-Aldrich, St. Louis Mo.), the NK-1 antagonist L-733060 (22.7 nmol; Tocris Bioscience, Minneapolis, Minn.), the AMPA/kainate antagonist CNQX (20 nmol; Tocris Bioscience), a combination of CNQX (20 nmol) and L-733060 (22.7 nmol), or a combination of RC-3095 (0.3 nmol), CNQX (20 nmol) and L-733060 (22.7 nmol), was administered by lumbar puncture, followed 5 minutes later by id injection (10 μl) of either chloroquine (193 nmol; Sigma-Aldrich) or histamine (271 nmol; Sigma-Aldrich). Microinjections were made id in the nape of the neck using a 30 G needle attached to a Hamilton microsyringe by PE-50 tubing. Immediately after the id injection the mouse was placed into the arena and videotaped from above for 30 min. Generally 3-4 mice were injected and videotaped simultaneously. Immediately after commencing videotaping all investigators left the room.
Videotapes were reviewed by investigators blinded to the treatment, and the number of scratch bouts was counted at 5-minute intervals. […] Hind paw movements directed away from the injection site (e.g., ear-scratching) and grooming movements were not counted. […]

[3] = test system: superficial dorsal horn neurons; assay: In vivo single-unit recording, topical AITC-evoked firing, spinal superfusion of antagonists; design: species or system mice
Procedure: (§1) Akiyama T et al., The Journal of neuroscience: the official journal of the Society for Neuroscience 29(20):6691-6699 (2009)]. Anesthesia was induced by sodium pentobarbital (60 mg/kg ip) and maintained by supplemental injections (10-20 mg/kg/hr). […] A tungsten microelectrode recorded single-unit activity in the lumbar spinal cord. A chemical search strategy [Akiyama T et al., Journal of neurophysiology 102(4):2176-2183 2009; […] Following mechanical stimulation, histamine (50 μg) was injected id within the same receptive field at a different location via a separate injection cannula. Following the id histamine injection, we tested the effects of antagonists for the receptors of NK1, GRP, or AMPA/kainate in the same manner as described above for chloroquine. […] Following the AITC application, we tested the effects of the NK-1 receptor antagonist, the AMPA/kainate receptor antagonist, or a combination of both antagonists in the same manner as described above for chloroquine. Action potentials were recorded to a computer and counted using Chart software (AD Instruments, Colorado Springs Colo.) and Spike2 software (CED Instruments). […] Mean peak responses elicited by noxious pinch were compared by one way repeated-measures ANOVA followed by post-hoc Bonferroni test, with p<0.05 set as significant. At the end of each experiment, an electrolytic lesion was made at the spinal cord recording site.

[4] = test system: superficial dorsal horn neurons; assay: In vivo single-unit recording, id histamine-evoked firing, spinal superfusion of antagonists; design: species or system mice
Procedure: as §1

N#Cc1cc2[nH]c(=O)c(=O)[nH]c2cc1[N+](=O)[O-] [CNQX]
chloroquine-evoked firing compared to vehicle superfusion ([1]; 40-60 s of superfusion, normalized firing, vs vehicle): significantly attenuated chloroquine-evoked firing | chloroquine-evoked firing in NS cells ([1]; NS units, vs vehicle): significantly reduced | chloroquine-evoked firing in WDR cells ([1]; WDR units, vs vehicle): significantly reduced | chloroquine-evoked firing, effect of spinal superfusion ([1]; relative to chloroquine-evoked response prior to spinal superfusion): significantly attenuated during and after spinal superfusion; also recorded: reduced | histamine-evoked scratching (scratch bouts/30 minutes) [2]: significantly decreased; also recorded: significantly reduced; also recorded: prevented histamine-evoked scratching behavior | AITC-evoked firing, effect of spinal superfusion ([3]; topical AITC 75%): significantly reduced | Percentages of dorsal horn units that exhibited a decrease of 70% or more in firing rate following spinal superfusion of antagonists ([3]; topical AITC-evoked firing, superfusion 1 min, L-733060 200 μM, CNQX 100 μM): 62% (8/15) | histamine-evoked response of NS units ([4]; NS units, vs vehicle): significantly reduced | histamine-evoked response of WDR units ([4]; WDR units, vs vehicle): significantly reduced | histamine-evoked firing, effect of spinal superfusion ([4]; all units): significantly attenuated histamine-evoked firing to a level not different from that elicited by id injection of vehicle (saline); also recorded: almost completely abolished histamine-evoked firing
